# Measurements: patent US8124582B2, “Treatment of diabetes” (FibroGen, Inc., priority 2002, dated 2012)
# How the values were obtained:
# [1] = test system: inducible nitric oxide synthase (iNOS); assay: In vivo iNOS mRNA expression (quantitative PCR); design: species or system Swiss Webster male mice; conditions: mice, FIG. 10A
# Experimental: To determine gene induction patterns over time, twenty four Swiss Webster male mice (30-32 g) were obtained from Simonsen, Inc. and treated by oral gavage with a 4 ml/kg volume of either 0.5% carboxymethyl cellulose (CMC; Sigma-Aldrich, St. Louis Mo.) (0 mg/kg/day) or […] compound B (25 mg/ml in 0.5% CMC) (100 mg/kg). At 4, 8, 16, 24, 48, or 72 hours after the final dose, animals were anesthetized with isoflurane. The mice were then sacrificed and tissue samples of kidney, liver, brain, lung, and heart were isolated and stored in RNALATER solution (Ambion) at −80° C.
# To investigate the dose response of compounds of the present invention, twelve Swiss Webster male mice (30-32 g) (obtained from Simonsen, Inc., Gilroy Calif.) were treated by oral gavage once per day for 4 days with a 4 ml/kg volume of either 0.5% carboxymethyl cellulose (CMC; Sigma-Aldrich, St. Louis Mo.), compound D (25 mg/ml in 0.5% CMC) (100 mg/kg/day), or compound B (7.5 and 25 mg/ml in 0.5% CMC) (30 and 100 mg/kg/day, respectively). Four hours after the final dose, animals were anesthetized, sacrificed, and approximately 150 mg of liver and each kidney were isolated and stored in RNALATER solution (Ambion) at −20° C.
# Hypertension is a risk factor for diabetes and disorders and diseases associated with diabetes. The effects of compounds of the present invention on regulation of blood pressure were examined as follows. Animals were treated with compound B or compound D and RNA samples were prepared as described above in Example 4. […] Analysis of the relative level of gene expression was performed by quantitative PCR using a FASTSTART DNA MASTER SYBR GREEN I kit (Roche) and gene-specific primers, using a LIGHTCYCLER system (Roche), according to manufacturer's instructions. […]
# The relative level of 18S ribosomal RNA gene expression was measured as a control. Quantitative PCR was performed using a QUANTITECT SYBR GREEN PCR kit (Qiagen) and gene-specific primers, using a LIGHTCYCLER system (Roche), according to manufacturer's instructions. […]
# [2] = Body weight gain, organ weight and visceral fat after 14 days oral dosing; assay type: in vivo, male Sprague Dawley rats
# Experimental: The effect of compounds of the present invention on weight loss and fat stores in animals was examined as follows. Fifty male Sprague Dawley rats (6-7 weeks old) obtained from Simonsen, Inc. were dosed with 0.5% CMC (Sigma-Aldrich) or compound B at 20, 60, 100, or 200 mg/kg body weight by oral gavage once daily for 14 consecutive days. Animals were monitored for changes in body weight and signs of overt toxicity and mortality. On day 15, following an overnight fast with water available ad libitum, animals were anesthetized with isoflurane. One whole blood sample of approximately 1 ml was collected into tubes containing EDTA for hematological analysis, and a second sample of approximately 1 ml was collected into a tube with no anticoagulant for serum chemistry analysis. Blood sample analyses were performed by IDEXX (West Sacramento, Calif.). Following blood collection, the diaphragm was incised and the animals were sacrificed. Macroscopic observations were recorded for each animal and the liver, kidneys, heart, spleen, lungs, stomach, small intestines, and large intestines were collected for histological assessment.
# aldolase = assay: Aldolase protein expression in 293A cells (Western blot); assay type: cell-based, Human; conditions: FIG. 1A
# Experimental: The effect of compounds of the present invention on expression of proteins and genes involved in glucose regulation and metabolism as follows. Human 293A cells (adenovirus-transformed fetal kidney epithelium) were plated confluent in 35 mm culture dishes and cultured for 1 day at 37° C., 10% CO2 in DMEM containing 5% FBS and 1% penicillin-streptomycin. The media was changed to Opti-Mem I and incubation was continued for an additional 18 to 24 hours. Vehicle control or compound B was then added to the media and cells were incubated for an additional 24, 48 or 72 hours. Plates were placed on ice, culture supernatant was removed, and lysis buffer-1 (LB-1: 10 mM Tris pH 7.4, 1 mM EDTA, 150 mM sodium chloride, 0.5% IGEPAL) was added. Cell lysates were harvested by scraping, incubated for 15 minutes on ice, and then fractionated by centrifugation at 3000×g for 5 minutes at 4° C. The supernatant, which represented the cytosolic fraction, was collected and cytosolic proteins were separated under reducing conditions using SDS-polyacrylamide gel electrophoresis (SDS-PAGE) with equal amounts of protein loaded per lane.
# SDS-PAGE was conducted at 150 V for 2 hours, after which the proteins were transferred to a PVDF membrane at 400 mA for 1.5 hours at 4° C. […]
smiles,measurement,setting,value
"O=C(O)CNC(=O)c1nc(Cl)c2ccccc2c1O [compound B, [(1-Chloro4-hydroxy-isoquinoline-3-carbonyl)-amino]-acetic acid]",dose dependence of iNOS induction,[1]; 30 and 100 mg/kg/day oral gavage,dose-dependent
same,expression of the gene encoding iNOS,"[1]; oral gavage, within 8 hours following treatment, then returned to control levels, normalized to 18S rRNA",increased
same,"relative heart weight, expressed as a fraction of the total body weight, compared to control","[2]; rats, 100 mg/kg, p=0.036, one-way ANOVA/Tukey's test",significantly increased
same,weight gain,"[2]; rats, 20, 60, 100, or 200 mg/kg oral gavage once daily for 14 days, FIG. 7A",dose-dependent retardation
same,visceral fat,"[2]; rats, 20 to 200 mg/kg oral gavage 14 days, FIG. 8",dose-dependent reduction
same,visceral fat pads at higher doses,"[2]; rats, higher doses of compound, FIG. 8 bottom panel",complete absence of fat pads
same,absolute heart weight compared to control,"[2]; rats, oral gavage 14 days, FIG. 7B",no statistically significant difference
same,aldolase expression,"aldolase; 293A cells treated for 24, 48, and 72 hours, vs vehicle control",increased over time
same,β-tubulin expression,"aldolase; 293A cells, specificity control",no increases
